# Reference: patent US10201588B2, “Materials and methods of treating dyslipidemia” (UNIVERSITY OF MIAMI, priority 2017, dated 2019)
# Marks after values point to notes of the source that are not given here.
# Assays:
# [1] = system: Rat small intestinal epithelial cells (IEC-6); assay: ApoB-48 lipoprotein secretion by cultured intestinal epithelial cells challenged with oleic acid; type: cell-based
# Description: Cell culture. Rat small intestinal epithelial cells (IEC-6, ATCC® CRL-1592™) were grown in 6-well plates in DMEM medium supplemented with 10% fetal bovine serum (heat inactivated FBS, Gibco/Invitrogen), 1 mM sodium pyruvate, 2 mM L-alanyl-L-glutamine (GLUTAMAX I), 5 μg/ml insulin (Sigma-Aldrich), 100 U/ml penicillin and 100 μg/ml streptomycin at 37° C. in a 5% CO2 atmosphere. For all experiments, cells up to passage 6 were used for all experiments.
# Peptide Analogs Preparation. GHRH agonist JI-34, and GHRH antagonist MIA-602 were synthesized in the laboratory of A.V.S. (23, 24) and dissolved initially in DMSO before dilution with incubation medium. The final concentration of DMSO in the medium never exceeded 0.1% v/v.
# Assessment of ApoB-48 lipoprotein secretion by cultured intestinal epithelial cells. Upon confluence, cells were washed twice with serum-free DMEM medium, upon which fresh serum-free medium, supplemented with or without 5 μg/ml insulin was added. After 2 hrs of equilibration, cells were pre-treated for 1 hour with the GHRH receptor agonist JI-34 (1 μM, dissolved in DMSO), while control cells received vehicle alone, followed by addition of the GLP-1 receptor agonist (Exendin-4, 10 nM, Sigma-Aldrich). After 3 hrs, cells were treated with 0.5 mM oleic acid (OA) complexed to BSA (Sigma-Aldrich) for 3 hrs, to allow for lipid loading into ApoB-48 lipoproteins. Additional cells were pre-incubated or not for 1 h with the GLP-1 receptor antagonist Exendin 9-39 (100 nM, Sigma-Aldrich), or the GHRH antagonist MIA-602 (1 μM, dissolved in DMSO). Upon completion of treatment, medium was collected, centrifuged at 1,000×g for 3 minutes, and saved at −80° C. for further analysis.
# (§1) Determination of metabolites. ApoB-48 lipoprotein was measured in plasma samples from rats and in culture medium supernatant from IEC by the use of a commercial ELISA kit (MyBioSource). The VLDL/LDL Cholesterol Assay kit (Abcam), the Total Cholesterol Assay kit (Wako) and the PicoProbe Triglyceride Quantification Assay Kit (Abcam) were used for analysis of VLDL/LDL fractions, total cholesterol and triglycerides in plasma samples. Albumin and creatinine levels in urine were analyzed by the use of Nephrat II and Creatinine Companion (Exocell) assay kits, respectively. Chemokines and glucose regulatory hormones (MCP-1, insulin, amylin, GIP and glucagon) were analyzed using the MILLIPLEX MAP Rat Metabolic Hormone Magnetic Bead Panel—Metabolism Multiplex Assay (RMHMAG-84K, EMD Millipore). Levels of growth hormone (GH) were assay with Rat Growth Hormone ELISA kit (EMD Millipore). Glucose levels were measured in blood by AlphaTRAK Blood Glucose Monitoring System.
# [2] = system: thoracic aortas of T1D rats; assay: Vasodilation of thoracic aortic rings from T1D rats (acetylcholine, sodium nitroprusside); type: in vivo, rat; conditions: three groups of animals compared, FIG. 5E
# Description: FIG. 5A is a graph showing the measurement of proteinuria in urine from control, T1D and MIA-602/T1D rats, expressed as the albumin/creatinine ratio (n=5 per group). FIG. 5B: Upper panel: representative immunoblot of α-smooth muscle actin (α-sma) expression (a marker of fibroblast activation and renal fibrosis) in homogenates of kidney cortex.
# Therefore, MCP-1 levels in the serum were analyzed. […] Both dyslipidemia and increased MCP-1 plasma levels represent risk factors for vascular endothelial dysfunction. […] Responses to the endothelial-independent vasodilator sodium nitroprusside (SNP) were similar amongst the three groups of animals (FIG. 5E).
# GHRH receptor = assay: Western blot of GHRH receptor expression in jejunum-ileum of T1D rats; type: in vivo, rat; conditions: diabetic rats, MIA-602 25 μg/kg s.c. three times a week for fourteen weeks, vs vehicle diabetic
# Description: (§2) T1 Diabetes Animal Model. Wistar rats (male, 200-250 g, Envigo RMS, Inc.) were rendered diabetic with a single dose of streptozotocin (STZ, 50 mg/kg body weight, i.p.). Once rats became hyperglycemic (>350 mg/dl plasma glucose, usually 3-4 days post STZ injection), they were divided into two groups, with and without treatment with the GHRH antagonist MIA-602 ([…], s.c.) administered three times a week for 14 weeks after establishment of diabetes. Untreated animals received vehicle alone with the same regimen. Upon completion of the 14 weeks period, animals were placed in metabolic cages for 3 days for adaptation, allowing them free movement, water and food intake. […] On the third day in the metabolic cages, food and water intake was monitored for a period of 24 hours. […]
# (§3) The entire small intestine was removed and its length was measured from the pylorus to the ileocecal junction. […] Proteins were detected with the following antibodies: GHRH receptor (Abcam), GLP-1 receptor (Santa Cruz Inc), α-sma (Sigma-Aldrich), or β-actin (Sigma-Aldrich). Data obtained from Western blots were processed by ImageJ quantification software.
# T1D was induced in Wistar rats (male, 320-350 g) with intraperitoneal injection of a single dose of STZ (50 mg/kg body weight). […] The entire small intestine was removed from rats, and its length was measured from the pylorus to the ileocecal junction. […]
# T1D rats [3] = assay: Kidney damage in T1D rats: proteinuria (albumin/creatinine ratio) and α-sma expression in kidney cortex; type: in vivo, rat; conditions: MIA-602 treatment vs vehicle-treated T1D
# Description: as §2
# Determination of metabolites. ApoB-48 lipoprotein was measured in plasma samples from rats and in culture medium supernatant from IEC by the use of a commercial ELISA kit (MyBioSource). The VLDL/LDL Cholesterol Assay kit (Abcam), the Total Cholesterol Assay kit (Wako) and the PicoProbe Triglyceride Quantification Assay Kit (Abcam) were used for analysis of VLDL/LDL fractions, total cholesterol and triglycerides in plasma samples. Albumin and creatinine levels in urine were analyzed by the use of Nephrat II and Creatinine Companion (Exocell) assay kits, respectively. […]
# [4] = system: Dipeptidyl-Peptidase 4 (DPP4); assay: Plasma DPP4 activity in T1D rats (ELISA kit); type: in vivo, rat; conditions: non-fasting state, MIA-602 treatment, FIG. 6
# Description: Treatment with MIA-602 blunted this effect. DPP4 activity values were measured in plasma obtained from rats in the non-fasting state, by the use of a commercial ELISA kit (MyBioSource).
# (§4) T1 Diabetes Animal Model. Wistar rats (male, 200-250 g, Envigo RMS, Inc.) were rendered diabetic with a single dose of streptozotocin (STZ, 50 mg/kg body weight, i.p.). Once rats became hyperglycemic (>350 mg/dl plasma glucose, usually 3-4 days post STZ injection), they were divided into two groups, with and without treatment with the GHRH antagonist MIA-602 ([…], s.c.) administered three times a week for 14 weeks after establishment of diabetes. Untreated animals received vehicle alone with the same regimen. Upon completion of the 14 weeks period, animals were placed in metabolic cages for 3 days for adaptation, allowing them free movement, water and food intake. During the entire experiment, rats were fed regular rat chow (Teklad Diet, Madison, Wis.) and received water ad libitum. On the third day in the metabolic cages, food and water intake was monitored for a period of 24 hours. 24-hour urine specimens were also collected, centrifuged at 400×g for 5 minutes for particulate removal, aliquoted and stored at −80° C. Animals were then euthanized in the morning around 10 am in a fed state, under deep anesthesia with isoflurane, by exsanguination, followed by removal of vital organs. […]
# GLP-1 receptor = assay: Western blot of GLP-1 receptor expression in T1D rats; type: in vivo, rat; conditions: MIA-602 treatment vs augmented expression in T1D, FIG. 3A
# Description: as §4, with “C.” for “C. Animals were then euthanized in the morning around 10 am in a fed state, under deep anesthesia with isoflurane, by exsanguination, followed by removal of vital organs.”
# as §3
# [5] = system: lung microvascular endothelial cells; conditions: reference (24); cited from earlier work
# T1D rats [6] = assay: Plasma metabolites, lipids, glucose regulatory hormones and chemokines in T1D rats; type: in vivo, rat
# Description: T1 Diabetes Animal Model. Wistar rats (male, 200-250 g, Envigo RMS, Inc.) were rendered diabetic with a single dose of streptozotocin (STZ, 50 mg/kg body weight, i.p.). Once rats became hyperglycemic (>350 mg/dl plasma glucose, usually 3-4 days post STZ injection), they were divided into two groups, with and without treatment with the GHRH antagonist MIA-602 ([…], s.c.) administered three times a week for 14 weeks after establishment of diabetes. Untreated animals received vehicle alone with the same regimen. Upon completion of the 14 weeks period, animals were placed in metabolic cages for 3 days for adaptation, allowing them free movement, water and food intake. During the entire experiment, rats were fed regular rat chow (Teklad Diet, Madison, Wis.) and received water ad libitum. On the third day in the metabolic cages, food and water intake was monitored for a period of 24 hours. 24-hour urine specimens were also collected, centrifuged at 400×g for 5 minutes for particulate removal, aliquoted and stored at −80° C. Animals were then euthanized in the morning around 10 am in a fed state, under deep anesthesia with isoflurane, by exsanguination, followed by removal of vital organs. Plasma was separated from heparinized blood samples, aliquoted and saved at −80° C. for further analysis. Rats were handled according to high ethical and scientific standards for laboratory animals, and our protocol was reviewed and approved by the Institutional Animal Care and Use Committee at the Medical College of Georgia at Augusta University.
# as §1
substance,measurement,setting,value
Phac-Ada-Ty^1-D-Arg^2-Asp^3-Ala^4-Ile^5-Phe(F)5^6-Thr^7-Ala^8-Har^9-Tyr(me)^10-His^11-Orn^12-Val^13-Leu^14-Abu^15-Glu^16-Leu^17-Ser^18-Ala^19-His^20-Orn^21-Leu^22-Leu^23-Glu^24-Asp^25-Ile^26-Nle^27-D-Arg^28-Har^29-NH2 [MIA-602],ApoB-48 released into medium,"[1]; oleic acid (0.5 mM)-treated IEC, no insulin, agent alone at 1 μM, no GLP-1 agonist, oleic acid alone 6.67±0.26",3.43 ± 0.15 µg/mL
same,ApoB-48 released into medium,"[1]; oleic acid-treated IEC, MIA-602 (1 μM) in the presence of JI-34 and exendin-4",4.47 ± 0.46 µg/mL
same,Responses to the endothelial-independent vasodilator sodium nitroprusside (SNP),[2],similar
same,Blunting of GHRH receptor expression in jejunum-ileum (Western blot densitometry),GHRH receptor,approximately 5 fold
same,Proteinuria (albumin/creatinine ratio),T1D rats [3]; FIG. 5A,reduced
same,α-sma expression in kidney cortex,"T1D rats [3]; Western blot, FIG. 5B",reduced
same,Plasma Dipeptidyl-Peptidase 4 (DPP4) activity,[4],reduced
same,GLP-1 receptor expression in distal small intestine and liver,GLP-1 receptor,unaffected
same,Barrier function,[5],slightly decreased
same,Plasma levels of apolipoprotein B-48 (ApoB-48),"T1D rats [6]; T1D rats treated with MIA-602, FIG. 2D",blunted
same,Plasma levels of GIP,"T1D rats [6]; T1D rats treated with MIA-602, not significant vs vehicle-treated diabetic (85.7±37.5)",46.7 ± 9.6 pg/mL
same,Lipemic plasma (visual),"T1D rats [6]; T1D rats treated with MIA-602 vs vehicle, FIG. 2A",significant reduction
same,Total cholesterol levels in plasma,"T1D rats [6]; T1D rats treated with MIA-602 vs vehicle-treated STZ diabetic animals, FIG. 2B",lower
same,VLDL/LDL-cholesterol in plasma,"T1D rats [6]; T1D rats treated with MIA-602 vs vehicle-treated STZ diabetic animals, FIG. 2C",lower
same,Plasma glucagon,"T1D rats [6]; T1D rats, MIA-602 25 μg/kg s.c. three times a week for 14 weeks, p < 0.02 vs Diabetes",55.9 ± 34.3^c pg/ml
same,Plasma GLP-1,"T1D rats [6]; T1D rats, MIA-602 25 μg/kg s.c. three times a week for 14 weeks, p < 0.05 vs Diabetes",48.7 ± 25.2^e pg/ml
same,MCP-1 serum levels,"T1D rats [6]; T1D rats, MIA-602 treatment, FIG. 5C",reduced
same,Plasma triglyceride levels,"T1D rats [6]; T1D rats, MIA-602 treatment, p<0.01 vs. STZ (89.3±4.2), n=6 per group",82.3 ± 2.8 mg/dL
same,Plasma glucose,"T1D rats [6]; T1D rats, non-fasting, MIA-602 25 μg/kg s.c. three times a week for 14 weeks, no insulin",603 ± 137.4^b mg/dl
exendin 9-39,ApoB-48 released into medium,"[1]; oleic acid-treated IEC, exendin 9-39 (100 nM) together with MIA-602 (1 μM), MIA-602 alone 3.43±0.15",7.56 ± 0.53 µg/mL
same,ApoB-48 released into medium,"[1]; oleic acid-treated IEC, pretreatment 100 nM, then exendin-4 (10 nM), exendin-4 alone 4.44±0.36",8.78 ± 0.34 µg/mL
exendin-4: GLP-1 receptor agonist (Sigma-Aldrich),ApoB-48 released into medium,"[1]; oleic acid (0.5 mM)-treated IEC, no insulin, agent alone at 10 nM, oleic acid alone 6.67±0.26, medium alone 3.48±0.98",4.44 ± 0.36 µg/mL
